Reference: ChEMBL document CHEMBL4359858, “Potently inhibiting cancer cell migration with novel 3H-pyrazolo[4,3-f]quinoline boronic acid ROCK inhibitors” (Eur J Med Chem, 2019)
The source made the active and inactive calls. The rule behind the calls is not given here.

How the values were obtained:
[1] = target: T1, Rho-associated protein kinase 2 (Homo sapiens, UniProt O75116); assay: Inhibition of active ROCK2 (R11-11G) (unknown origin) at 100 nM using S6K as substrate incubated for 3 hrs by ADP-Glo kinase assay relative to control
Target sequence in this assay (O75116 whole entry, looked up): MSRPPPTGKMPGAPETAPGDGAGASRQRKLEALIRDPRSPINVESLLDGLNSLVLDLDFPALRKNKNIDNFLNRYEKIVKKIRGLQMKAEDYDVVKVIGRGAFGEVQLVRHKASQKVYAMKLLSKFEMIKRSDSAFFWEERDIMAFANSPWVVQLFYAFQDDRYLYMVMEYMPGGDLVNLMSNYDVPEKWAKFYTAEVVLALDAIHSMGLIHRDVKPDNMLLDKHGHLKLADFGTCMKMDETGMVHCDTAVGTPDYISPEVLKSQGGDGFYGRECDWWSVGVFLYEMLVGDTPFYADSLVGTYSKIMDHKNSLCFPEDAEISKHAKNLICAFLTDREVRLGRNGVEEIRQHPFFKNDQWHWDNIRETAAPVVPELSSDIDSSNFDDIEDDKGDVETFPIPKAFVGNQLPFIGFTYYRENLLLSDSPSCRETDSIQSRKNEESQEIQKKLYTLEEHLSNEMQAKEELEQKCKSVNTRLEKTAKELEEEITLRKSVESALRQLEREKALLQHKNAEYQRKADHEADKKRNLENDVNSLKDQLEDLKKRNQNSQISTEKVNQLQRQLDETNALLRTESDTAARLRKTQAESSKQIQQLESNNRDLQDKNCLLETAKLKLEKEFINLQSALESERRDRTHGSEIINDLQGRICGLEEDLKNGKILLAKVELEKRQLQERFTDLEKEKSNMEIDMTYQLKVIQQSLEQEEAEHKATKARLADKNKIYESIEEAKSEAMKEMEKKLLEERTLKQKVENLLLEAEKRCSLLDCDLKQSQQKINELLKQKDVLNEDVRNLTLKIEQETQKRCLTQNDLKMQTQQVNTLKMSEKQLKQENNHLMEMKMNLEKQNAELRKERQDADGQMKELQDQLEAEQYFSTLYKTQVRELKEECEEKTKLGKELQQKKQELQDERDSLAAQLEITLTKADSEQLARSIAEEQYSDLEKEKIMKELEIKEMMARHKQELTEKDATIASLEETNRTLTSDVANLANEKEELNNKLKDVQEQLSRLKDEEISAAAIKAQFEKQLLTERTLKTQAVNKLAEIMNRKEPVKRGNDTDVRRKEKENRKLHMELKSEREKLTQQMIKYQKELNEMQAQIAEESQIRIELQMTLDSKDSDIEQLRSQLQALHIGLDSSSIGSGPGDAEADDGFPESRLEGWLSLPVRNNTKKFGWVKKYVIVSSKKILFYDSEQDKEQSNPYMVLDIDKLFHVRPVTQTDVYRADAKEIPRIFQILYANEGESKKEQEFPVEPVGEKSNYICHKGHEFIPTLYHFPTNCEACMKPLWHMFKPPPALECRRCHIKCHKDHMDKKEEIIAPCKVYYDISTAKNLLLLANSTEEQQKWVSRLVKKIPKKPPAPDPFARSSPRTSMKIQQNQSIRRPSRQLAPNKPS

[2] = system: MDA-MB-231; assay: Inhibition of cell migration of human MDA-MB-231 cells at 1 uM incubated for 24 hrs; type: functional, cell-based
[3] = system: MDA-MB-231; assay: Cytotoxicity against human MDA-MB-231 cells assessed as reduction in cell viability at 5 uM incubated for 12 hrs by CellTiter-Blue assay; type: cell-based; conditions: mda-mb-231, 12 h
[4] = Cytotoxicity against human MDA-MB-231 cells assessed as cell viability at 10 uM incubated for 12 hrs by CellTiter-Blue assay relative to control; type: cell-based; conditions: read-out: Activity
[5] = Cytotoxicity against human MDA-MB-231 cells assessed as cell viability at 10 uM incubated for 24 hrs by CellTiter-Blue assay relative to control; type: cell-based; conditions: read-out: Activity
[6] = target: T1, Rho-associated protein kinase 2; assay: Binding affinity to ROCK2 (unknown origin) incubated for 1 hr by qPCR analysis
Target sequence in this assay (O75116 whole entry): as the sequence (O75116 whole entry, looked up) above

[7] = target: T2, Rho-associated protein kinase 1 (Homo sapiens, UniProt Q13464); assay: Inhibition of human ROCK1 using KEAKEKRQEQIAKRRRLSSLRASTSKSGGSQK as substrate incubated for 20 mins in presence of [gamma33P]ATP by filter binding method
[8] = target: T2, Rho-associated protein kinase 1; assay: Binding affinity to ROCK1 (unknown origin) incubated for 1 hrs by qPCR analysis
[9] = target: T1, Rho-associated protein kinase 2; assay: Inhibition of human ROCK2 using KEAKEKRQEQIAKRRRLSSLRASTSKSGGSQK as substrate incubated for 20 mins in presence of [gamma33P]ATP by filter binding method
Target sequence in this assay (O75116 whole entry): as the sequence (O75116 whole entry, looked up) above

[10] = target: T2, Rho-associated protein kinase 1; assay: Inhibition of recombinant human GST-tagged ROCK1 (1 to 535 residues) using myelin basic protein as substrate incubated for 30 mins by ADP-Glo assay
[11] = target: T1, Rho-associated protein kinase 2; assay: Inhibition of recombinant human GST-tagged ROCK2 (1 to 552 residues) using myelin basic protein as substrate incubated for 30 mins by ADP-Glo assay
Target sequence in this assay (O75116 whole entry): as the sequence (O75116 whole entry, looked up) above

T2 sequence (Q13464 whole entry): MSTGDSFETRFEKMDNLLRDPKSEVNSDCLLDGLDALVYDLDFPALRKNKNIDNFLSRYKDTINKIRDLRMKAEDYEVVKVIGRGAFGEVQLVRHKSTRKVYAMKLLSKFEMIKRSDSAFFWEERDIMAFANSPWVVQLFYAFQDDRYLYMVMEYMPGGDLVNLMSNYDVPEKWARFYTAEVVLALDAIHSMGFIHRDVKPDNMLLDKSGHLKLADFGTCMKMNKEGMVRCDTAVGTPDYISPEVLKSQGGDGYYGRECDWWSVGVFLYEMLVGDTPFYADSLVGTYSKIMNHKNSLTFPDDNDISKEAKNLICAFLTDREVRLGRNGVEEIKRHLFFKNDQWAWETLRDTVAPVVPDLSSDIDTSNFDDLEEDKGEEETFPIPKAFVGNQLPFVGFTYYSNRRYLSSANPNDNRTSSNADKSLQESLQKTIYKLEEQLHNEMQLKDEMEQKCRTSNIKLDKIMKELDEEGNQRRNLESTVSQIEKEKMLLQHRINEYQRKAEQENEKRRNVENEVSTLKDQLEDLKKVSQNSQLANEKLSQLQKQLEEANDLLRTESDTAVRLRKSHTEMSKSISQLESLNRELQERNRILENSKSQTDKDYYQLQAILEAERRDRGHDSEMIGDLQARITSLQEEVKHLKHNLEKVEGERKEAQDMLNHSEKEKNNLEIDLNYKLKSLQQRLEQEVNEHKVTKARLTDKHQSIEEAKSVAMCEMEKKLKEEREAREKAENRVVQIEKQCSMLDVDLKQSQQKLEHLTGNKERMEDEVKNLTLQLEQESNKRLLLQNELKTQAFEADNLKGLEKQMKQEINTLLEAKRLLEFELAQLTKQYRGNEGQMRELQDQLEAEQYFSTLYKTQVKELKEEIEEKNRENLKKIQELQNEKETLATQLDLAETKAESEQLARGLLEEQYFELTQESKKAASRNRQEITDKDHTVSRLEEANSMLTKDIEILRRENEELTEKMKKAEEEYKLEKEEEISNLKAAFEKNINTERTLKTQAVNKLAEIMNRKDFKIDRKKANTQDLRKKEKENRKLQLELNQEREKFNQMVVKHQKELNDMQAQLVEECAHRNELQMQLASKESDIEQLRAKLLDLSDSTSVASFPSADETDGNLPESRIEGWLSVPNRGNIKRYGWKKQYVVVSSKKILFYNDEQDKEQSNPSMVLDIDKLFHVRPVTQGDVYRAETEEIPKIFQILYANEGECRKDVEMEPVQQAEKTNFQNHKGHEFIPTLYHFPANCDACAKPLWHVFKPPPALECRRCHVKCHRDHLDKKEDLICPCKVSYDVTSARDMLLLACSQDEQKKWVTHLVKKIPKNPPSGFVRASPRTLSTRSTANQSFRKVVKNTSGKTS

| Compound | inhibition [1] | further results |
| --- | --- | --- |
| OB(O)c1cccc(-c2nc3ccc4[nH]ncc4c3c3c2CCCC3)c1 | Active | – |
| Cc1n[nH]c2ccc3nc(-c4sccc4B(O)O)c4c(c3c12)CCC4 | Active | – |
| c1nc2ccc3[nH]ncc3c2c2c1CCCC2 | 10 to 15% | – |
| Cc1ccc(C(=O)OCc2ccc([C@@H](CN)C(=O)Nc3ccc4cnccc4c3)cc2)c(C)c1 | – | inhibition [2]: inactive; Activity [3]: Toxic |
| OB(O)c1ccc(-c2nc3ccc4[nH]ncc4c3c3c2CCCC3)cc1F | Active | – |
| OB(O)c1ccc(-c2cc(-c3ccc(F)c(Cl)c3)c3c(ccc4[nH]ncc43)n2)cc1F | 10 to 15% | – |
| OB(O)c1csc(-c2nc3ccc4[nH]ncc4c3c3c2CCCC3)c1 | Active | – |
| COc1c(B(O)O)cccc1-c1cc(-c2cc(F)cc(F)c2)c2c(ccc3[nH]ncc32)n1 | 10 to 15% | – |
| COc1c(B(O)O)cccc1-c1cc(-c2ccc(F)c(Cl)c2)c2c(ccc3[nH]ncc32)n1 | 10 to 15% | – |
| COc1c(B(O)O)cccc1-c1nc2ccc3[nH]ncc3c2cc1C | Active | – |
| COc1c(B(O)O)cccc1-c1nc2ccc3[nH]ncc3c2cc1-c1ccc(Cl)cc1 | Active | – |
| OB(O)c1ccc(-c2nc3ccc4[nH]ncc4c3c3c2CCCC3)o1 | Active | – |
| COc1ccc(-c2nc3ccc4[nH]ncc4c3c3c2CCCC3)cc1B(O)O | Active | – |
| c1csc(-c2nc3ccc4[nH]ncc4c3c3c2CCCC3)c1 | Active | – |
| COc1c(B(O)O)cccc1-c1nc2ccc3[nH]nc(C)c3c2c2c1CCC2 | 32% | – |
| COc1c(B(O)O)cccc1-c1nc2ccc3[nH]ncc3c2cc1-c1ccncc1 | Active | – |
| OB(O)c1cccc(-c2nc3ccc4[nH]ncc4c3c3c2CCCC3)c1F | Active | – |
| OB(O)c1cccc(-c2nc3ccc4[nH]ncc4c3cc2-c2ccccc2)c1F | Active | – |
| c1cc(-c2nc3ccc4[nH]ncc4c3c3c2CCCC3)cs1 | Active | – |
| OB(O)c1ccc(-c2nc3ccc4[nH]ncc4c3c3c2CCCC3)cc1 | Active | – |
| OB(O)c1cccc(-c2nc3ccc4[nH]ncc4c3cc2-c2ccc(F)c(Cl)c2)c1F | Active | – |
| COc1c(B(O)O)cccc1-c1nc2ccc3[nH]ncc3c2c2c1CCC2 | 59% | viability at 12 h, 10 µM [4]: 75 to 80%; viability at 24 h, 10 µM [5]: 60 to 63%; Kd [6]: 1.2 to 1.3 nM; inhibition [2]: Active; IC50 [7]: 1.22 nM; Kd [8]: 1.5 to 1.8 nM; IC50 [9]: 0.51 nM |
| COc1nc(N[C@H]2CC[C@H](N)CC2)c(F)cc1C(N)=O | – | IC50 [10]: 10 nM; IC50 [11]: 7.8 nM |
